# Results taken from patent US10669290B2, “Beta-lactamase inhibitors” (priority 2012, dated 2020).
# Read-outs that look alike come from different tables or passages of the source.
# Columns and labels:
# E. cl 144200 p99 AmpC = assay: Broth microdilution MIC, E. cloacae 144200; assay type: cell-based; conditions: fixed ceftazidime 4 μg/mL, CAMHB, 16-20 hours 37° C.; for MIC: Enterobacter cloacae, read-out: MIC of exemplary compounds in presence of fixed β-lactams, Fixed CAZ, E. cl 144200 p99 AmpC
# Summary of the method: (§1)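 Test compound was 2-fold serially diluted in cation-adjusted Mueller Hinton broth (final 32 to 0.25 μg/mL) under a fixed β-lactam overlay at 4 μg/ml. Plates were inoculated per CLSI broth microdilution with 3-5 h cultures, incubated 16-20 hours at 37° C, and MIC was read visually.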
# K.P. 156319 KPC-3 = assay: Broth microdilution MIC, K. pneumoniae 156319; assay type: cell-based; conditions: fixed meropenem 4 μg/mL, CAMHB, 16-20 hours 37° C.; for MIC: Klebsiella pneumoniae, read-out: MIC of exemplary compounds in presence of fixed β-lactams, Fixed Mero, K.P. 156319 KPC-3
# KPC-2 = molecular target: T1, KPC-2 (Klebsiella pneumoniae, UniProt Q9F663); assay: β-Lactamase inhibition, KPC-2 (imipenem substrate); assay type: biochemical
# T1 construct: made in house; host or cells: E. coli BL21 (DE3)
# T1 sequence (Q9F663 25-293 limits assumed): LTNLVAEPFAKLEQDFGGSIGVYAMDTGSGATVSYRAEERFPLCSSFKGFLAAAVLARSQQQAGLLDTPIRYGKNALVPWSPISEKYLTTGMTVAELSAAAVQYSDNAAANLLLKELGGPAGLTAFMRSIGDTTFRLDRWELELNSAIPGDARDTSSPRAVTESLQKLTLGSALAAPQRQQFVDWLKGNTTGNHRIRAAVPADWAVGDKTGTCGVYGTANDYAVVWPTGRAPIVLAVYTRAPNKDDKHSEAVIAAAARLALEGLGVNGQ
# Description: (§2) For SHV-5, Kpc-2, p99AmpC and OXA-1 β-lactamases, E. coli BL21 (DE3) bacterial cells carrying expression plasmids (expressed as native untagged proteins) for the individual β-lactamases were grown in 1 L of Superbroth (Teknova Inc. Hollister, Calif.) supplemented with 100 μg/ml kanamycin selection and 1×5052 (0.5% glycerol, 0.05% glucose and 0.2% α-lactose) at 35° C. for 18-20 hours. Cells were harvested by centrifugation (4,000×g, 4° C., 20 min), resuspended in 50 ml of 10 mM HEPES pH 7.5 ( 1/20 of the initial volume). The cells were lysed by sonication (5 pulses of 45 seconds) at 45 W on ice. The lysates were clarified by centrifugation at 10,000×g for 40 minutes at 4° C. Samples were diluted 5-fold in 50 mM sodium acetate pH 5.0, stored overnight at 4° C., after which they were centrifuged at 10,000×g for 30 minutes to clarify, and filtered through 0.45 µm filters. The samples were loaded onto a 5 ml Capto S sepharose cation exchange column (GE Healthcare) pre-equilibrated with 50 mM sodium acetate pH 5.0. […] Active fractions were pooled concentrated, quantitated by BCA protein determination (Thermo Scientific, Rockford, Ill.), dialyzed into PBS and frozen at −80° C. in 20% glycerol until use.
# (§3) An equal volume of diluted enzyme stock was added, and the plates were incubated at 37° C. for 15 min. […] Absorbance at 486 nm was immediately monitored for 10 min using a Biotek Powerwave XS2 microplate spectrophotometer using the GEN5 software package (Biotek Instruments, Winooski Vt.). In an analogous fashion, imipenem was used as substrate for Kpc-2 and Cefotaxime was used for SHV-5, while changes in absorbance upon hydrolysis of the β-lactam ring were monitored at 300 nm and 260 nm respectively in UV-transparent 96-well microtiter assay plates. Maximum rates of hydrolysis were compared to those in control wells (without inhibitors), and percentages of enzyme inhibition were calculated for each concentration of inhibitor. […]
# VIM-2 = molecular target: T2, VIM-2 (Escherichia coli, UniProt Q5U7L7); assay: β-Lactamase inhibition, VIM-2 (nitrocefin substrate); assay type: biochemical
# T2 construct: made in house; host or cells: E. coli BL21 (DE3)
# Description: as §2, with “use. […]” for “use.”
# as §3
# P. aerug. Ps296 VIM-2 = assay: Broth microdilution MIC, P. aeruginosa Ps296; assay type: cell-based; conditions: fixed meropenem 4 μg/mL, CAMHB, 16-20 hours 37° C.; for MIC: Pseudomonas aeruginosa, read-out: MIC of exemplary compounds in presence of fixed β-lactams, Fixed Mero, P. aerug. Ps296 VIM-2
# Summary of the method: as §1
# E. coli ESBL4 CTX-M-15 = assay: Broth microdilution MIC, E. coli ESBL4; assay type: cell-based; conditions: fixed ceftazidime 4 μg/mL, CAMHB, 16-20 hours 37° C.; for MIC: Escherichia coli, ESBL4CTXM15, read-out: MIC of exemplary compounds in presence of fixed β-lactams, Fixed CAZ, E. coli ESBL4 CTX-M-15
# Summary of the method: as §1
# SHV-5 = molecular target: T3, SHV-5 (Klebsiella pneumoniae, UniProt P0A3M1); assay: β-Lactamase inhibition, SHV-5 (cefotaxime substrate); assay type: biochemical
# T3 construct: made in house; host or cells: E. coli BL21 (DE3)
# T3 sequence (P0A3M1 22-286): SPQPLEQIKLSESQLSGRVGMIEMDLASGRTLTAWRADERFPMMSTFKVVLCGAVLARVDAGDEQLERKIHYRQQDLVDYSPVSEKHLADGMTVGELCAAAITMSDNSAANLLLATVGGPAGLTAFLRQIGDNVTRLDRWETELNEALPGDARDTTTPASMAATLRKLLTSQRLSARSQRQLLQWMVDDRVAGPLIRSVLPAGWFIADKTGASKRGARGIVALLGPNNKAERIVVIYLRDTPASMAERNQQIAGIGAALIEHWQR
# Description: as §2, §3
# p99 AmpC = molecular target: T4, p99 AmpC (Enterobacter cloacae, UniProt P05364); assay: β-Lactamase inhibition, p99 AmpC (nitrocefin substrate); assay type: biochemical
# T4 construct: made in house; host or cells: E. coli BL21 (DE3)
# T4 sequence (P05364 21-381): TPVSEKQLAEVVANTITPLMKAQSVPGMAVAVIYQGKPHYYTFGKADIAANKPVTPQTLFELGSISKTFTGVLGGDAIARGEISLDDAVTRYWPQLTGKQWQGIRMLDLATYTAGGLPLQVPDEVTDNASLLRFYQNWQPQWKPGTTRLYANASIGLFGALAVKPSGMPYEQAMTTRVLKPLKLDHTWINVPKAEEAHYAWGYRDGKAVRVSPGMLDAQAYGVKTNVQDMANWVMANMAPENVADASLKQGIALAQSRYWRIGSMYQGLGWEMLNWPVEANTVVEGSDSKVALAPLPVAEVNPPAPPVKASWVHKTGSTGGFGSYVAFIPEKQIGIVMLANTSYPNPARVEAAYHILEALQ
# Description: For SHV-5, Kpc-2, p99AmpC and OXA-1 β-lactamases, E. coli BL21 (DE3) bacterial cells carrying expression plasmids (expressed as native untagged proteins) for the individual β-lactamases were grown in 1 L of Superbroth (Teknova Inc. Hollister, Calif.) supplemented with 100 μg/ml kanamycin selection and 1×5052 (0.5% glycerol, 0.05% glucose and 0.2% α-lactose) at 35° C. for 18-20 hours. Cells were harvested by centrifugation (4,000×g, 4° C., 20 min), resuspended in 50 ml of 10 mM HEPES pH 7.5 ( 1/20 of the initial volume). The cells were lysed by sonication (5 pulses of 45 seconds) at 45 W on ice. The lysates were clarified by centrifugation at 10,000×g for 40 minutes at 4° C. Samples were diluted 5-fold in 50 mM sodium acetate pH 5.0, stored overnight at 4° C., after which they were centrifuged at 10,000×g for 30 minutes to clarify, and filtered through 0.45 µm filters. The samples were loaded onto a 5 ml Capto S sepharose cation exchange column (GE Healthcare) pre-equilibrated with 50 mM sodium acetate pH 5.0. The column was washed with 5 column volumes of 50 mM sodium acetate pH 5.0 to wash out unbound protein and a linear gradient of NaCl (0 to 500 mM) was used to elute the protein (over 16 CV) from the column. Fractions were assayed for β-lactamase activity using Centa (Calbiochem, Gibbstown, N.J.) or Nitrocefin (EMD Millipore chemicals, Darmstadt, Germany) as a reporter β-lactamase substrate for activity in the isolated fractions. Active fractions were pooled, concentrated and further purified by gel filtration chromatography on a Superdex 75 prep grade gel filtration column (GE Healthcare, Piscataway, N.J.) pre-equilibrated in 50 mM Hepes pH 7.5, 150 mM NaCl. Active fractions were pooled concentrated, quantitated by BCA protein determination (Thermo Scientific, Rockford, Ill.), dialyzed into PBS and frozen at −80° C. in 20% glycerol until use.
# An equal volume of diluted enzyme stock was added, and the plates were incubated at 37° C. for 15 min. Nitrocefin was used as substrate for p99 AmpC, VIM-2 and OXA-1 and dispensed into each well at a final concentration of 100 μM. Absorbance at 486 nm was immediately monitored for 10 min using a Biotek Powerwave XS2 microplate spectrophotometer using the GEN5 software package (Biotek Instruments, Winooski Vt.). In an analogous fashion, imipenem was used as substrate for Kpc-2 and Cefotaxime was used for SHV-5, while changes in absorbance upon hydrolysis of the β-lactam ring were monitored at 300 nm and 260 nm respectively in UV-transparent 96-well microtiter assay plates. Maximum rates of hydrolysis were compared to those in control wells (without inhibitors), and percentages of enzyme inhibition were calculated for each concentration of inhibitor. The concentration of inhibitor needed to reduce the initial rate of hydrolysis of substrate by 50% (IC50) was calculated as the residual activity of β-lactamase at 486 nm using GraFit version 7 kinetics software package (Erithacus Software, Surrey, UK).
# Using the methodology described above, examples of the current invention were evaluated for their ability to inhibit β-lactamase enzymes from all four Ambler classifications (A through D). […] NT=Not tested.
# OXA-1 = molecular target: T5, OXA-1 (Escherichia coli, UniProt P13661); assay: β-Lactamase inhibition, OXA-1 (nitrocefin substrate); assay type: biochemical
# T5 construct: made in house; host or cells: E. coli BL21 (DE3)
# T5 sequence (P13661 26-276): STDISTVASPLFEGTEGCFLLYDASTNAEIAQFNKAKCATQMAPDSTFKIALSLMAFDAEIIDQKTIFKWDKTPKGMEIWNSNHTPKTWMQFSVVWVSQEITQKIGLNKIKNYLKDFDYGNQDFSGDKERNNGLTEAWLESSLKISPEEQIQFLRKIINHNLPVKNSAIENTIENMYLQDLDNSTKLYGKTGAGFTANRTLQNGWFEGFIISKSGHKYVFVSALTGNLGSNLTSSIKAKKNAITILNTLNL
# Description: as §2, §3
# K.P. A-1797 KPC-2 VIM-4 = assay: Broth microdilution MIC, K. pneumoniae A-1797; assay type: cell-based; conditions: fixed meropenem 4 μg/mL, CAMHB, 16-20 hours 37° C.; for MIC: Klebsiella pneumoniae, read-out: MIC of exemplary compounds in presence of fixed β-lactams, Fixed Mero, K.P. A-1797 KPC-2 VIM-4
# S. aureus MSSA-7 PC-1 = assay: Broth microdilution MIC, S. aureus MSSA-7; assay type: cell-based; conditions: Staphylococcus aureus, fixed piperacillin 4 μg/mL, CAMHB, 16-20 hours 37° C., read-out: MIC of exemplary compounds in presence of fixed β-lactams, Fixed Pip, S. aureus MSSA-7 PC-1
# [1] = nitrocefin 100 μM, 486 nm, 15 min preincubation 37° C., PBS pH 7.4, read-out: IC50 AmpC (Class C)
structure (smiles),measurement,setting,value
"NC[C@@H]1CC[C@@H](CC(=O)N[C@H]2Cc3cccc(C(=O)O)c3OB2O)C[C@H]1CN (mixture of isomers) [Example 18, (3R)-3-[[2-[(1S,3S,4S)-3,4-bis(aminomethyl)cyclohexyl]acetyl]amino]-2-hydroxy-3,4-dihydro-1,2-benzoxaborinine-8-carboxylic acid and (3R)-3-[[2-[(1R,3R,4R)-3,4-bis(aminomethyl)cyclohexyl]acetyl]amino]-2-hydroxy-3,4-dihydro-1,2-benzoxaborinine-8-carboxylic acid]","MIC of exemplary compounds in presence of fixed β-lactams, Fixed CAZ, E. cl 144200 p99 AmpC",E. cl 144200 p99 AmpC,C (C represents the MIC in the presence of <4 μg/mL of a β-lactamase inhibitor of exemplary compounds)
same,"MIC of exemplary compounds in presence of fixed β-lactams, Fixed Mero, K.P. 156319 KPC-3",K.P. 156319 KPC-3,C (C represents the MIC in the presence of <4 μg/mL of a β-lactamase inhibitor of exemplary compounds)
same,IC50,KPC-2,< 100 nM
same,IC50,VIM-2,< 100 nM
same,"MIC of exemplary compounds in presence of fixed β-lactams, Fixed Mero, P. aerug. Ps296 VIM-2",P. aerug. Ps296 VIM-2,C (C represents the MIC in the presence of <4 μg/mL of a β-lactamase inhibitor of exemplary compounds)
same,"MIC of exemplary compounds in presence of fixed β-lactams, Fixed CAZ, E. coli ESBL4 CTX-M-15",E. coli ESBL4 CTX-M-15,C (C represents the MIC in the presence of <4 μg/mL of a β-lactamase inhibitor of exemplary compounds)
same,IC50,SHV-5,< 100 nM
same,IC50,p99 AmpC,< 100 nM
same,IC50,OXA-1,< 100 nM
same,"MIC of exemplary compounds in presence of fixed β-lactams, Fixed Mero, K.P. A-1797 KPC-2 VIM-4",K.P. A-1797 KPC-2 VIM-4,B (B represents the MIC in the presence of between 8 and 32 μg/mL of a β-lactamase inhibitor of exemplary compounds)
"N[C@H]1CC(C(=O)N[C@H]2Cc3cccc(C(=O)O)c3OB2O)C[C@@H]1N (mixture of isomers) [Example 19, (3R)-3-[[(3S,4S)-3,4-diaminocyclopentanecarbonyl]amino]-2-hydroxy-3,4-dihydro-1,2-benzoxaborinine-8-carboxylic acid and (3R)-3-[[(3R,4R)-3,4-diaminocyclopentanecarbonyl]amino]-2-hydroxy-3,4-dihydro-1,2-benzoxaborinine-8-carboxylic acid]","MIC of exemplary compounds in presence of fixed β-lactams, Fixed CAZ, E. cl 144200 p99 AmpC",E. cl 144200 p99 AmpC,C (C represents the MIC in the presence of <4 μg/mL of a β-lactamase inhibitor of exemplary compounds)
same,"MIC of exemplary compounds in presence of fixed β-lactams, Fixed Mero, K.P. 156319 KPC-3",K.P. 156319 KPC-3,C (C represents the MIC in the presence of <4 μg/mL of a β-lactamase inhibitor of exemplary compounds)
same,IC50,KPC-2,< 100 nM
same,IC50,VIM-2,< 100 nM
same,"MIC of exemplary compounds in presence of fixed β-lactams, Fixed Mero, P. aerug. Ps296 VIM-2",P. aerug. Ps296 VIM-2,C (C represents the MIC in the presence of <4 μg/mL of a β-lactamase inhibitor of exemplary compounds)
same,"MIC of exemplary compounds in presence of fixed β-lactams, Fixed CAZ, E. coli ESBL4 CTX-M-15",E. coli ESBL4 CTX-M-15,C (C represents the MIC in the presence of <4 μg/mL of a β-lactamase inhibitor of exemplary compounds)
same,IC50,SHV-5,100 to 1000 nM
same,IC50,p99 AmpC,< 100 nM
same,IC50,OXA-1,< 100 nM
same,"MIC of exemplary compounds in presence of fixed β-lactams, Fixed Mero, K.P. A-1797 KPC-2 VIM-4",K.P. A-1797 KPC-2 VIM-4,C (C represents the MIC in the presence of <4 μg/mL of a β-lactamase inhibitor of exemplary compounds)
"O=C(CC1CCC(NC2CNC2)CC1)N[C@H]1Cc2cccc(C(=O)O)c2OB1O (stereo partly drawn) [Example 36, (3R)-3-(2-(4-(azetidin-3-ylamino)cyclohexyl)acetamido)-2-hydroxy-3,4-dihydro-2H-benzo[e][1,2]oxaborinine-8-carboxylic acid]",MIC,E. cl 144200 p99 AmpC,< 4 µg/mL
same,MIC,K.P. 156319 KPC-3,< 4 µg/mL
same,MIC,P. aerug. Ps296 VIM-2,< 4 µg/mL
same,MIC,E. coli ESBL4 CTX-M-15,< 4 µg/mL
same,MIC,S. aureus MSSA-7 PC-1,< 4 µg/mL
same,IC50,p99 AmpC; [1],< 100 nM
same,MIC,K.P. A-1797 KPC-2 VIM-4,8 to 32 µg/mL
"N=C(N)NC1CN(C2CCC(CC(=O)N[C@H]3Cc4cccc(C(=O)O)c4OB3O)CC2)C1 (stereo partly drawn) [Example 41, (3R)-3-(2-(4-(3-guanidinoazetidin-1-yl)cyclohexyl)acetamido)-2-hydroxy-3,4-dihydro-2H-benzo[e][1,2]oxaborinine-8-carboxylic acid]",MIC,E. cl 144200 p99 AmpC,< 4 µg/mL
same,MIC,K.P. 156319 KPC-3,< 4 µg/mL
same,MIC,P. aerug. Ps296 VIM-2,8 to 32 µg/mL
same,MIC,E. coli ESBL4 CTX-M-15,< 4 µg/mL
same,MIC,S. aureus MSSA-7 PC-1,< 4 µg/mL
same,IC50,p99 AmpC; [1],< 100 nM
same,MIC,K.P. A-1797 KPC-2 VIM-4,< 4 µg/mL
"O=C(CC1CCC(O)CC1)N[C@H]1Cc2cccc(C(=O)O)c2OB1O (stereo partly drawn) [Example 47, (3R)-2-hydroxy-3-(2-(4-hydroxycyclohexyl)acetamido)-3,4-dihydro-2H-benzo[e][1,2]oxaborinine-8-carboxylic acid]",MIC,E. cl 144200 p99 AmpC,< 4 µg/mL
same,MIC,K.P. 156319 KPC-3,< 4 µg/mL
same,MIC,P. aerug. Ps296 VIM-2,8 to 32 µg/mL
same,MIC,E. coli ESBL4 CTX-M-15,< 4 µg/mL
same,MIC,S. aureus MSSA-7 PC-1,< 4 µg/mL
same,IC50,p99 AmpC; [1],< 100 nM
same,MIC,K.P. A-1797 KPC-2 VIM-4,> 32 µg/mL
